Reference: US12570655B2, “Cysteine covalent modifiers of AKT1 and uses thereof” (Terremoto Biosciences, Inc., priority 2023, dated 2026)
Like-named read-outs stand apart in the source and are kept apart here.

Experiments:
Assay type in all cases: cell-based
[1] = molecular target: T1, AKT1 E17K (Homo sapiens, UniProt P31749, E17K); test: Live cell AKT1 E17K target engagement by NanoBRET competitive probe displacement; conditions: HEK293 cells transfected with kinase-NanoLuciferase fusion, 2 h at 37° C.
T1 construct: expressed in transfected cells; host or cells: HEK293
T1 sequence (P31749 whole entry E17K, the tested form may be a part): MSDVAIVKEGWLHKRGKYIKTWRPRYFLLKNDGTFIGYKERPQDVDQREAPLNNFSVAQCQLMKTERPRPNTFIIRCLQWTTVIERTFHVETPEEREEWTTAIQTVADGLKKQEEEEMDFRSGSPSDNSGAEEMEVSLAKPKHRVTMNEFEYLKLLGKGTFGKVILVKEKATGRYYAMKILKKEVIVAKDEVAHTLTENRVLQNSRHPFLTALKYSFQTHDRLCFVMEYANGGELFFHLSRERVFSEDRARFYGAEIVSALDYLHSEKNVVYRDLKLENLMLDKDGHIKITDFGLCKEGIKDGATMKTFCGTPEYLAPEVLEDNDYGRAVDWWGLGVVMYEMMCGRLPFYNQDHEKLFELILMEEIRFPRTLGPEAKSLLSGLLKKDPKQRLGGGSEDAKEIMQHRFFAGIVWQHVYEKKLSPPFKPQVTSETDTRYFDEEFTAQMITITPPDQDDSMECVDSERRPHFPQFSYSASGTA
Method in brief: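 IC50 reflects displacement of a fluorescent ATP-competitive tracer, dosed near its EC50, from kinase–NanoLuciferase fusions in live HEK293 cells. Cells were incubated with compound and tracer for 2 h at 37 °C, then E600/E460 BRET was read.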

[2] = molecular target: T2, AKT2 (Homo sapiens, UniProt P31751); test: Live cell AKT2 target engagement by NanoBRET competitive probe displacement; conditions: HEK293 cells transfected with kinase-NanoLuciferase fusion, 2 h at 37° C.
T2 construct: expressed in transfected cells; host or cells: HEK293
T2 sequence (P31751 whole entry, the tested form may be a part): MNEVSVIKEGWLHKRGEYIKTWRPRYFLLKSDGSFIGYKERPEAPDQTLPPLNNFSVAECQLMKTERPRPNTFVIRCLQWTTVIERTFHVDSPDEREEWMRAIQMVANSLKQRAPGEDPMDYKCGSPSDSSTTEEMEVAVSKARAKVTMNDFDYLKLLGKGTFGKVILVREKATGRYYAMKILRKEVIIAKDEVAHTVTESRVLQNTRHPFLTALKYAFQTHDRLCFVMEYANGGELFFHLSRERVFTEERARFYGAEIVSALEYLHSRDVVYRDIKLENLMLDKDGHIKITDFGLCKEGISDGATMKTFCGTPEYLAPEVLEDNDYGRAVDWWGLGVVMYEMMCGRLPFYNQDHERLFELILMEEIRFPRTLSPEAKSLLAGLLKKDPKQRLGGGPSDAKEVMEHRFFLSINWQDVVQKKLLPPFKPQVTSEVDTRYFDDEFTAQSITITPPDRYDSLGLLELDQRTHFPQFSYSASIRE
Method: (§1) Determining Live Cell AKT1 E17K, AKT1 WT, and AKT2 Target Engagement by NanoBRET Competitive Probe Displacement.
(§2) Live cell target engagement assays were performed as described (Vasta, J. D. et al. Cell Chem Biol 2018, 25(11), 206-214). Briefly, HEK293 cells were transfected with plasmids encoding kinase-NanoLuciferase fusion proteins overnight. Cells were then treated with serial dilutions of compound and an ˜EC50 concentration of fluorescently-tagged ATP-competitive tracer (Promega). After incubation for 2 h at 37° C., luciferase substrate and extracellular luciferase inhibitor were added to all wells, and luminescent intensity at 460 nm and 600 nm were measured on a multimode plate-reader. The ratio of E600/E460 was calculated to give the tracer engagement signal (BRET). IC50 values were calculated by fitting BRET values to a log(inhibitor) vs. response Hill equation.

[3] = system: LAPC4 prostate cancer cells; test: Antiproliferative effects in LAPC4 cells (CellTiter Glo); conditions: LAPC4 cells (AKT1 E17K allele), read-out: LAPC4 proliferation IC50
Method in brief: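 Seed 1,000 cells/well in IMDM/12% FBS/1% P/S; add compound dilutions (DMSO); incubate 72 h; read intracellular ATP with CellTiter Glo; fit luminescence to log(inhibitor)-response Hill curve for IC50.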

[4] = molecular target: T3, AKT1 WT (Homo sapiens, UniProt P31749); test: Live cell AKT1 WT target engagement by NanoBRET competitive probe displacement; conditions: HEK293 cells transfected with kinase-NanoLuciferase fusion, 2 h at 37° C.
T3 construct: expressed in transfected cells; host or cells: HEK293
T3 sequence (P31749 whole entry, the tested form may be a part): as the sequence (P31749 whole entry E17K, the tested form may be a part) above, with K17E counted along it
Method: as §1, §2

IC50 [1] [nM] | IC50 [2] [nM] | IC50 ([3]; Homo sapiens, LAPC4, 72 h) [nM] | IC50 [4] [nM] | IC50 ([3]; 72 h) [nM] | SMILES
53.3 | 158 | 145 | 20 | – | C=CC(=O)N1CC2COCC(C1)C2N[C@H]1CCc2cc(-n3c(-c4cccnc4N)nc4ccc(-n5cccn5)nc43)ccc21 (mixture of isomers) [Example 64, 1-(9-(((S)-5-(2-(2-aminopyridin-3-yl)-5-(1H-pyrazol-1-yl)-3H-imidazo[4,5-b]pyridin-3-yl)-2,3-dihydro-1H-inden-1-yl)amino)-3-oxa-7-azabicyclo[3.3.1]nonan-7-yl)prop-2-en-1-one]
49.6 | 301 | – | – | 1600 | C=CC(=O)N1CCC(N[C@@H]2c3ccc(-n4c(-c5ccccc5F)nc5ccc(-n6cccn6)nc54)cc3CC2F)C[C@H]1C (single isomer, unassigned) [Example 319, 1-((2R,4*)-4-(((1R,2*)-2-fluoro-5-(2-(2-fluorophenyl)-5-(1H-pyrazol-1-yl)-3H-imidazo[4,5-b]pyridin-3-yl)-2,3-dihydro-1H-inden-1-yl)amino)-2-methylpiperidin-1-yl)prop-2-en-1-one]
16.3 | 88.1 | – | 396 | – | C=CC(=O)N1CCC(N[C@@H]2c3ccc(-n4c(-c5ccccc5)nc5ccc(-c6ccccc6)nc54)cc3CC2F)CC1 (single isomer, unassigned) [Example 324, 1-(4-{[(1R,2*)-5-{2,5-diphenylimidazo[4,5-b]pyridin-3-yl}-2-fluoro-2,3-dihydro-1H-inden-1-yl]amino}piperidin-1-yl)prop-2-en-1-one]
7.92 | 101 | – | 298 | – | C=CC(=O)N1CCC(N[C@@H]2c3ccc(-n4c(-c5ccccc5)nc5ccc(-c6ccccc6)nc54)cc3CC2F)CC1 (single isomer, unassigned) [Example 325, 1-(4-{[(1R,2*)-5-{2,5-diphenylimidazo[4,5-b]pyridin-3-yl}-2-fluoro-2,3-dihydro-1H-inden-1-yl]amino}piperidin-1-yl)prop-2-en-1-one]
7.25 | 29.3 | – | 98.8 | – | C=CC(=O)N1CCC(N[C@H]2CCc3cc(-n4c(-c5cccnc5N)nc5ccc(-n6cccn6)nc54)ccc32)CC1CC#N (single isomer, unassigned) [Example 326, 2-((2*,4*)-1-acryloyl-4-(((S)-5-(2-(2-aminopyridin-3-yl)-5-(1H-pyrazol-1-yl)-3H-imidazo[4,5-b]pyridin-3-yl)-2,3-dihydro-1H-inden-1-yl)amino)piperidin-2-yl)acetonitrile]
25.2 | 99.4 | – | 204 | – | C=CC(=O)N1CCC(N[C@H]2CCc3cc(-n4c(-c5cccnc5N)nc5ccc(-n6cccn6)nc54)ccc32)CC1CC#N (single isomer, unassigned) [Example 327, 2-((2*,4*)-1-acryloyl-4-(((S)-5-(2-(2-aminopyridin-3-yl)-5-(1H-pyrazol-1-yl)-3H-imidazo[4,5-b]pyridin-3-yl)-2,3-dihydro-1H-inden-1-yl)amino)piperidin-2-yl)acetonitrile]
5.37 | 17.9 | – | 156 | – | C=CC(=O)N1CCC(N[C@@H]2c3ccc(-n4c(-c5ccccc5)nc5ccc(-n6cccn6)nc54)cc3CC2F)CC1C(F)F (single isomer, unassigned) [Example 329, 1-((2*,4*)-2-(difluoromethyl)-4-(((1R,2*)-2-fluoro-5-(2-phenyl-5-(1H-pyrazol-1-yl)-3H-imidazo[4,5-b]pyridin-3-yl)-2,3-dihydro-1H-inden-1-yl)amino)piperidin-1-yl)prop-2-en-1-one]
31 | 69.3 | – | 1480 | – | C=CC(=O)N1CCC(N[C@@H]2c3ccc(-n4c(-c5ccccc5)nc5ccc(-n6cccn6)nc54)cc3CC2F)CC1C(F)F (single isomer, unassigned) [Example 330, 1-((2*,4*)-2-(difluoromethyl)-4-(((1R,2*)-2-fluoro-5-(2-phenyl-5-(1H-pyrazol-1-yl)-3H-imidazo[4,5-b]pyridin-3-yl)-2,3-dihydro-1H-inden-1-yl)amino)piperidin-1-yl)prop-2-en-1-one]
18.1 | 128 | – | 807 | – | C=CC(=O)N1CCC(N[C@@H]2c3ccc(-n4c(-c5ccccc5)nc5ccc(-n6cccn6)nc54)cc3CC2F)CC1C(F)F (single isomer, unassigned) [Example 331, 1-((2*,4*)-2-(difluoromethyl)-4-(((1R,2*)-2-fluoro-5-(2-phenyl-5-(1H-pyrazol-1-yl)-3H-imidazo[4,5-b]pyridin-3-yl)-2,3-dihydro-1H-inden-1-yl)amino)piperidin-1-yl)prop-2-en-1-one]
6.75 | 23.5 | – | 137 | – | C=CC(=O)N1CCC(N[C@@H]2c3ccc(-n4c(-c5cccnc5N)nc5ccc(-n6ccc(C7CC7)n6)nc54)cc3CC2F)CC1C(F)F (single isomer, unassigned) [Example 334, 1-((2*,4*)-4-(((1*,2*)-5-(2-(2-aminopyridin-3-yl)-5-(3-cyclopropyl-1H-pyrazol-1-yl)-3H-imidazo[4,5-b]pyridin-3-yl)-2-fluoro-2,3-dihydro-1H-inden-1-yl)amino)-2-(difluoromethyl)piperidin-1-yl)prop-2-en-1-one]
9.48 | 28.3 | – | 288 | – | C=CC(=O)N1CCC(NC2c3ccc(-n4c(-c5cccnc5N)nc5ccc(-n6ccc(C7CC7)n6)nc54)cc3CC2F)CC1C(F)F (single isomer, unassigned) [Example 335, 1-((2*,4*)-4-(((1*,2*)-5-(2-(2-aminopyridin-3-yl)-5-(3-cyclopropyl-1H-pyrazol-1-yl)-3H-imidazo[4,5-b]pyridin-3-yl)-2-fluoro-2,3-dihydro-1H-inden-1-yl)amino)-2-(difluoromethyl)piperidin-1-yl)prop-2-en-1-one]
16.4 | 25.4 | – | 523 | – | C=CC(=O)N1CCC(NC2c3ccc(-n4c(-c5cccnc5N)nc5ccc(-n6ccc(C7CC7)n6)nc54)cc3CC2F)CC1C(F)F (single isomer, unassigned) [Example 336, 1-((2*,4*)-4-(((1*,2*)-5-(2-(2-aminopyridin-3-yl)-5-(3-cyclopropyl-1H-pyrazol-1-yl)-3H-imidazo[4,5-b]pyridin-3-yl)-2-fluoro-2,3-dihydro-1H-inden-1-yl)amino)-2-(difluoromethyl)piperidin-1-yl)prop-2-en-1-one]
6.65 | 15.9 | – | 86.1 | – | C=CC(=O)N1CCC(CC2CCc3cc(-n4c(-c5cccnc5N)nc5ccc(-n6cccn6)nc54)ccc32)CC1 (single isomer, unassigned) [Example 343, 1-(4-(((*)-5-(2-(2-aminopyridin-3-yl)-5-(1H-pyrazol-1-yl)-3H-imidazo[4,5-b]pyridin-3-yl)-2,3-dihydro-1H-inden-1-yl)methyl)piperidin-1-yl)prop-2-en-1-one]
21.4 | 549 | – | 418 | – | C=CC(=O)N1CCC(CC2CCc3cc(-n4c(-c5cccnc5N)nc5ccc(-n6cccn6)nc54)ccc32)CC1 (single isomer, unassigned) [Example 344, 1-(4-(((*)-5-(2-(2-aminopyridin-3-yl)-5-(1H-pyrazol-1-yl)-3H-imidazo[4,5-b]pyridin-3-yl)-2,3-dihydro-1H-inden-1-yl)methyl)piperidin-1-yl)prop-2-en-1-one]
– | > 10000 | – | 726 | – | C=C(F)C(=O)N1CCC(N[C@H]2CCc3cc(-n4c(-c5cccnc5N)nc5ccc(-n6cccn6)nc54)ccc32)CC1 [Example 46, 1-(4-{[(1S)-5-[2-(2-aminopyridin-3-yl)-5-(pyrazol-1-yl)imidazo[4,5-b]pyridin-3-yl]-2,3-dihydro-1H-inden-1-yl]amino}piperidin-1-yl)-2-fluoroprop-2-en-1-one]
6.22 | 45.3 | – | 263 | – | C=CC(=O)N1CCC(N[C@H]2CCc3cc(-n4c(-c5cccnc5N)nc5ccc(-n6ccc(C7(F)CC7)n6)nc54)ccc32)CC1 [Example 323, 1-(4-{[(1S)-5-[2-(2-aminopyridin-3-yl)-5-[3-(1-fluorocyclopropyl)pyrazol-1-yl]imidazo[4,5-b]pyridin-3-yl]-2,3-dihydro-1H-inden-1-yl]amino}piperidin-1-yl)prop-2-en-1-one]
34 | 63.5 | – | 268 | – | C=CC(=O)N1C[C@@H]2[C@H](C1)[C@@H]2NC1CCc2cc(-n3c(-c4cccnc4N)nc4ccc(-n5cccn5)nc43)ccc21 (stereo partly drawn) [Example 345, 1-[(1R,5S,6R)-6-({5-[2-(2-aminopyridin-3-yl)-5-(pyrazol-1-yl)imidazo[4,5-b]pyridin-3-yl]-2,3-dihydro-1H-inden-1-yl}amino)-3-azabicyclo[3.1.0]hexan-3-yl]prop-2-en-1-one]
